This assay can be described thus: Inhibition of 2-[125I]iodomelatonin binding to Melatonin receptor 3 (MT3) of Syrian hamster brain membrane.
On to `COc1ccc2[nH]cc(CCNC(C)=O)c2c1[N+](=O)[O-]` [N-(2-(5-methoxy-4-nitro-1H-indol-3-yl)ethyl)acetamide], for which the inhibition constant Ki (as a rule, the equilibrium dissociation constant of an inhibitor or competing ligand from its target) turned out to be 1.1 nM.

Compound `COc1ccc2c(c(CCNC(C)=O)cn2C)c1[N+](=O)[O-]` [N-[2-(5-Methoxy-1-methyl-4-nitro-1H-indol-3-yl)-ethyl]-acetamide] gave a Ki of 0.31 nM.

With `COc1ccc2c(c1)c(CCNC(C)=O)cn2C` [N-[2-(5-Methoxy-1-methyl-1H-indol-3-yl)-ethyl]-acetamide], the affinity corresponds to a Ki of 2.8 nM.

The values are drawn from BindingDB's records for doi:10.1021/jm011053+ (Institut De Chimie Pharmaceutique Albert Lespagnol, 2002).
